Assay results as given in PMC4574636 (Biochemical pharmacology, 2015).
Residue numbers refer to the chain shown, from its start.

Tests used:
[1] = cited from earlier work
[2] = biological target: T1, human AOX1 I1085A+ V1016R (Homo sapiens, UniProt Q06278, I1085A/V1016R); settings: I1085A+ V1016R double mutant, Figure 5
T1 sequence (Q06278 1-1338 V1016R/I1085A): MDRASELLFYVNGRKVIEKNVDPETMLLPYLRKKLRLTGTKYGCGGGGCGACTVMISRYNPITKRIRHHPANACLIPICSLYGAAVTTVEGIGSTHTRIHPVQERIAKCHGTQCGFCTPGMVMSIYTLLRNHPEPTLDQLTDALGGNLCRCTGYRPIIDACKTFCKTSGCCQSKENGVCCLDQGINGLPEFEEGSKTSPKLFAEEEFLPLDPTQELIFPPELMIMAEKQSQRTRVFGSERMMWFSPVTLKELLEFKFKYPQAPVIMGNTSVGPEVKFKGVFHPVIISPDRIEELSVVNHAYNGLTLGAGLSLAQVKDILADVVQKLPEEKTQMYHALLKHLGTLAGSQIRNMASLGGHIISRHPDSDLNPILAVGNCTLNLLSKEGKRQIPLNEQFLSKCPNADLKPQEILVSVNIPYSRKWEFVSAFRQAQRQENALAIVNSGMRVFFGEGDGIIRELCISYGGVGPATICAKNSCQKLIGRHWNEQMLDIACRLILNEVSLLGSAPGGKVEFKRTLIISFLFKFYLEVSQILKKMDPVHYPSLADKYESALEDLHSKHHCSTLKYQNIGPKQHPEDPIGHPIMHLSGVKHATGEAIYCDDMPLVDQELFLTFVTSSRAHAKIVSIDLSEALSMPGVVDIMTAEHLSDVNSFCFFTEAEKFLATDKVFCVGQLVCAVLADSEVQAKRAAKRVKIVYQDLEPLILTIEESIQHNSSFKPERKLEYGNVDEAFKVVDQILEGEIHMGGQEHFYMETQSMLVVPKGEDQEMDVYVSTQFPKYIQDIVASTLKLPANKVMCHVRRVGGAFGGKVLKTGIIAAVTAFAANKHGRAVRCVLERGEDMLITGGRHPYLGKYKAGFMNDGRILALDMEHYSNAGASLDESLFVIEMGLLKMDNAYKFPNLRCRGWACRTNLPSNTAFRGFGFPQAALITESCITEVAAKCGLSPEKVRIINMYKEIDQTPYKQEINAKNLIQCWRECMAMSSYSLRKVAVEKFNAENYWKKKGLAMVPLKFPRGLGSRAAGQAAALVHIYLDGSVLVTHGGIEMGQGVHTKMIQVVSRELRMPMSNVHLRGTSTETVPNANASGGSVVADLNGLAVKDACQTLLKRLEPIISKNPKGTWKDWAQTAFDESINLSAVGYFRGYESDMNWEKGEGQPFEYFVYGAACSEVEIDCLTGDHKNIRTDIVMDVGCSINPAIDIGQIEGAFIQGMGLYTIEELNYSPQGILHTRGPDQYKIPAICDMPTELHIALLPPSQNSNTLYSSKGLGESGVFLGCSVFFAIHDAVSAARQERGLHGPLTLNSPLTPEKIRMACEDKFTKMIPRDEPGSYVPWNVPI

AOX1 = biological target: T2, AOX1 (Homo sapiens, UniProt Q06278); settings: human liver cytosol
T2 sequence (Q06278 1-1338): T1 sequence (Q06278 1-1338 V1016R/I1085A) with R1016V, A1085I

## CN(Cc1cnc2nc(N)nc(N)c2n1)c1ccc(C(=O)N[C@@H](CCC(=O)O)C(=O)O)cc1 [Methotrexate, 4-amino-N^1^0-methylpteroglutamic acid]
[1]; conventional dose levels of methotrexate in primates
  7-hydroxymethotrexate in vivo: not detected
[1]; high dose (> 50 mg methotrexate/kg) therapy regimes
  Parent compound excreted as 7-hydroxymethotrexate: ≤ 33%
[2]
  Km / affinity vs wild type: decreased affinity for methotrexate compared to wild type AOX1
  Methotrexate hydroxylation activity: significant decrease in activity compared to the wild type and I1085A
AOX1; calculated from Vmax and AOX1 level (figure 1A)
  kcat (Vmax/[AOX1]): 2.4 min⁻¹
AOX1; from specific activity and Km
  In vitro CLint AOX1: 0.9 min^− 1mM^−1
